Source: patent US6875727B2, “Use of macrolides in pest control” (Syngenta Crop Protection, Inc., priority 1998, dated 2005)

What was measured:
Assay type in all cases: in vivo
Heliothis spp. = experiment: Plot test, maize cv. KnockOut vs conventional maize, natural infestation with Heliothis spp.; details: for control of Heliothis on plot (a): plot (a) maize cv. KnockOut, spray 200, 100, 50, 10, 5, 1 ppm, evaluation 6 days later; for control level on plot (b): plot (b) conventional maize, also treated with 200, 100, 50, 10, 5, 1 ppm of the endotoxin expressed by KnockOut, 6 days
Method: (§1) A plot (a) planted with maize cv. KnockOut® and an adjacent plot (b) of the same size which is planted with conventional maize, both showing natural infestation with Ostrinia nubilalis, Spodoptera spp. or Heliothis, are sprayed with an aqueous emulsion spray mixture comprising 200, 100, 50, 10, 5, 1 ppm of spinosad. Immediately afterwards, plot (b) is treated with an emulsion spray mixture comprising 200, 100, 50, 10, 5, 1 ppm of the endotoxin expressed by KnockOut®. Evaluation takes place 6 days later. The percentage reduction in population (% action) is determined by comparing the number of dead pests on the plants of plot (a) with that on the plants of plot (b).
as §1, with “sp” for “spp.”, “abamectin.” for “spinosad.”
as §1, with “sp” for “spp.”, “emamectin benzoate.” for “spinosad.”

Spodoptera spp. = experiment: Plot test, maize cv. KnockOut vs conventional maize, natural infestation with Spodoptera spp.; details: for control of Spodoptera spp. on plot (a): plot (a) maize cv. KnockOut, spray 200, 100, 50, 10, 5, 1 ppm, evaluation 6 days later; for control level on plot (b): plot (b) conventional maize, also treated with 200, 100, 50, 10, 5, 1 ppm of the endotoxin expressed by KnockOut, 6 days
Method: as §1
as §1, with “sp” for “spp.”, “abamectin.” for “spinosad.”
as §1, with “sp” for “spp.”, “emamectin benzoate.” for “spinosad.”

Ostrinia nubilalis = experiment: Plot test, maize cv. KnockOut vs conventional maize, natural infestation with Ostrinia nubilalis; details: for control of Ostrinia nubilalis on plot (a): plot (a) maize cv. KnockOut, spray 200, 100, 50, 10, 5, 1 ppm, evaluation 6 days later; for control level on plot (b): plot (b) conventional maize, also treated with 200, 100, 50, 10, 5, 1 ppm of the endotoxin expressed by KnockOut, 6 days
Method: as §1
as §1, with “sp” for “spp.”, “abamectin.” for “spinosad.”
as §1, with “sp” for “spp.”, “emamectin benzoate.” for “spinosad.”

[1] = tested on: Spodoptera littoralis larvae; experiment: Spray action on transgenic cotton plants against Spodoptera littoralis larvae
Excerpt: (§2) Young transgenic cotton plants which express the δ-endotoxin CryIIIA are sprayed with an aqueous emulsion spray mixture comprising 100, 50, 10, 5, 1 ppm of emamectin-benzoate respectively. After the spray coating has dried on, the cotton plants are populated with 10 adult Anthonomus grandis, 10 Spodoptera littoralis larvae or 10 Heliothis virescens larvae respectively and introduced into a plastic container. Evaluation takes place 3 to 10 days later. The percentage reduction in population, or the percentage reduction in feeding damage (% action), is determined by comparing the number of dead beetles and the feeding damage on the transgenic cotton plants with that of non-transgenic cotton plants which have been treated with an emulsion spray mixture comprising emamectin-benzoate and conventional CryIIIA-toxin at a concentration of in each case 100, 50, 10, 5, 1 ppm respectively.
as §2, with “abamectin” for “emamectin-benzoate”
as §2, with “spinosad” for “emamectin-benzoate”
as §2, with “δ-endotoxin CryIa(c)” for “δ-endotoxin CryIIIA”, “of spinosad” for “of emamectin-benzoate”, “comprising spinosad” for “comprising emamectin-benzoate”
(§3) Young transgenic cotton plants which express the δ-endotoxin CryIa(c) are sprayed with an aqueous emulsion spray mixture comprising 100, 50, 10, 5, 1 ppm of abamectin respectively. After the spray coating has dried on, the cotton plants are populated with 10 adult Anthonomus grandis, 10 Spodoptera littoralis larvae or 10 Heliothis virescens larvae respectively and introduced into a plastic container. Evaluation takes place 3 to 10 days later. […]

[2] = tested on: Heliothis virescens larvae; experiment: Spray action on transgenic cotton plants against Heliothis virescens larvae
Excerpt: as §2
as §2, with “abamectin” for “emamectin-benzoate”
as §2, with “spinosad” for “emamectin-benzoate”
as §2, with “δ-endotoxin CryIa(c)” for “δ-endotoxin CryIIIA”, “of spinosad” for “of emamectin-benzoate”, “comprising spinosad” for “comprising emamectin-benzoate”
as §3

[3] = tested on: Anthonomus grandis adults; experiment: Spray action on transgenic cotton plants against Anthonomus grandis adults
Excerpt: as §2
as §2, with “abamectin” for “emamectin-benzoate”
as §2, with “spinosad” for “emamectin-benzoate”
as §2, with “δ-endotoxin CryIa(c)” for “δ-endotoxin CryIIIA”, “of spinosad” for “of emamectin-benzoate”, “comprising spinosad” for “comprising emamectin-benzoate”
as §3

[4] = non-transgenic cotton, spray mixture with conventional CryIIIA-toxin, each 100, 50, 10, 5, 1 ppm (comparison to CryIIIA cotton)
[5] = non-transgenic cotton, spray mixture with conventional CryIIIA-toxin, each 100, 50, 10, 5, 1 ppm (comparison to CryIa(c) cotton)
[6] = transgenic cotton expressing δ-endotoxin CryIIIA, spray 100, 50, 10, 5, 1 ppm, evaluation 3 to 10 days
[7] = transgenic cotton expressing δ-endotoxin CryIa(c), spray 100, 50, 10, 5, 1 ppm, evaluation 3 to 10 days

| Substance | control of Heliothis on plot (a) (Heliothis spp.) | control level on plot (b) (Heliothis spp.) | control of Spodoptera spp. on plot (a) (Spodoptera spp.) | control level on plot (b) (Spodoptera spp.) | control of Ostrinia nubilalis on plot (a) (Ostrinia nubilalis) | control level on plot (b) (Ostrinia nubilalis) | control of the tested insects (% action: reduction in population or feeding damage) [1, 4] | control of the tested insects (% action: reduction in population or feeding damage) [1, 5] | control of the tested insects (% action: reduction in population or feeding damage) [1, 6] | control of the tested insects (% action: reduction in population or feeding damage) [1, 7] | control of the tested insects (% action: reduction in population or feeding damage) [2, 4] | control of the tested insects (% action: reduction in population or feeding damage) [2, 5] | control of the tested insects (% action: reduction in population or feeding damage) [2, 6] | control of the tested insects (% action: reduction in population or feeding damage) [2, 7] | control of the tested insects (% action: reduction in population or feeding damage) [3, 4] | control of the tested insects (% action: reduction in population or feeding damage) [3, 5] | control of the tested insects (% action: reduction in population or feeding damage) [3, 6] | control of the tested insects (% action: reduction in population or feeding damage) [3, 7] |
| --- | --- | --- | --- | --- | --- | --- | --- | --- | --- | --- | --- | --- | --- | --- | --- | --- | --- | --- |
| abamectin | Improved control | ≤ 80% | Improved control | ≤ 80% | Improved control | ≤ 80% | insufficient | insufficient | superior | superior | insufficient | insufficient | superior | superior | insufficient | insufficient | superior | superior |
| emamectin-benzoate | Improved control | ≤ 80% | Improved control | ≤ 80% | Improved control | ≤ 80% | insufficient | insufficient | superior | superior | insufficient | insufficient | superior | superior | insufficient | insufficient | superior | superior |
| spinosad | Improved control | ≤ 80% | Improved control | ≤ 80% | Improved control | ≤ 80% | insufficient | insufficient | superior | superior | insufficient | insufficient | superior | superior | insufficient | insufficient | superior | superior |
